Test results: patent US20210299079A1, “MONOMETHYL FUMARATE-CARRIER CONJUGATES AND METHODS OF THEIR USE” (Flagship Pioneering Innovations V, Inc., priority 2018, published 2021)

Key:
MIP-1α = experiment: Neutrophil Chemokine Production Assay: MIP-1α; type: cell-based; conditions: human neutrophils, 12 h
Description: (§1) A volume 25 mL of human blood was layered over 15 mL of Histopaque®-1077 and centrifuged at 500 g, R^T, for 30 min with no break applied to the centrifuge. The PBMC band and Histopaque®-1077 layer were removed leaving behind the bottom red layer which was mixed with 40 mL of 1× red blood cell (RBC) lysis buffer (Sigma-Aldrich) was and split into two 50 mL tubes. The volume for both fractions was brought to 50 mL with RBC lysis buffer, mixed by inversion, and then incubated at RT for 10 min. Solutions were centrifuged at 250 g, for 10 min at RT and the supernatant liquids removed. The reddish pellets were re-suspended in 1 mL of RBC lysis buffer and combined. The cell suspension was incubated for 5 min at RT in RBC lysis buffer. After incubation 45 mL of Hanks Balanced Salt Solution with no calcium, magnesium or phenol red (HBSS—) was added, the cell suspension was spun (250 g for 10 min at RT), and supernatant liquids were removed. The white pellet was re-suspended in 1 mL of HBSS—, and cell counts were determined. The neutrophil cell suspension was brought to a concentration of 1.11e6 cells/mL in RPMI complete (Sigma-Aldrich), and 180 μL of cell suspension was transferred to all wells within a sterile 96-well tissue culture treated plate resulting in 2.0×10^5 cells/well. […] After incubation, 10 μL of 2 μg/mL LPS solution in RPMI complete was added to each well except for control wells, which received an additional 10 μL of media. Cells were incubated for 12 h (37° C., 5% CO2), after which plates were centrifuged at 250 g, RT, for 5 min and supernatant liquids were obtained and stored at −80° C. until analyzed via Luminex® Multiplex Assay for various chemokines and cytokines. Three data points were acquired from two different blood donors and averaged.

naïve CD4+ T cells = experiment: Human Regulatory T Cell Differentiation Assay; type: cell-based; conditions: 6 days; for Treg induction % DMSO: TGF-β; for Cell viability % DMSO: viability dye
Description: Peripheral blood mononuclear cells (PBMCs) from whole blood donated by health volunteers were separated by Ficoll-Paque gradient centrifugation and naïve CD4^+ T cells were subsequently isolated using magnet beads (EasySep™ Human Naïve CD4^+ T Cell Isolation Kit, Cambridge, Mass.). For regulatory T cell (Treg) differentiation assay, naïve CD4^+ T cells were cultured (1-10×10^4 cells) in CTS OpTmizer medium for 6 days and stimulated with 5 ng/ml TGF-β, 100 U/ml IL-2, and ImmunoCult™ Human […] T Cell Activator; Stemcell #10990) with/without our Compounds. Cell viability was determined using a viability dye (eBioscience Fixable Viability Dye eFluor 780: ThermoFisher 65-0865-14) at 1:500 dilution. The cells were gated for Treg, defined as Live, CD11c^−, CD14^−, CD19^−, CD8^−, CD4^+, CD3^+, CD25^+, FOXP3^+. Percent (%) Tregs were calculated as percentage of CD4^+, CD25^+, FOXP3^+ cells over total CD4^+ T cells. Statistical analysis was performed with GraphPad Prism Software Using One-Way ANOVA.

IL-8 = experiment: Neutrophil Chemokine Production Assay: IL-8; type: cell-based; conditions: human neutrophils, 12 h
Description: as §1

AhR = biological target: T1, AhR (Homo sapiens, UniProt P35869); experiment: AhR Activation in Caco-2 Cells Through CYP1A1 mRNA Expression; conditions: overnight
T1 sequence (P35869 11-848): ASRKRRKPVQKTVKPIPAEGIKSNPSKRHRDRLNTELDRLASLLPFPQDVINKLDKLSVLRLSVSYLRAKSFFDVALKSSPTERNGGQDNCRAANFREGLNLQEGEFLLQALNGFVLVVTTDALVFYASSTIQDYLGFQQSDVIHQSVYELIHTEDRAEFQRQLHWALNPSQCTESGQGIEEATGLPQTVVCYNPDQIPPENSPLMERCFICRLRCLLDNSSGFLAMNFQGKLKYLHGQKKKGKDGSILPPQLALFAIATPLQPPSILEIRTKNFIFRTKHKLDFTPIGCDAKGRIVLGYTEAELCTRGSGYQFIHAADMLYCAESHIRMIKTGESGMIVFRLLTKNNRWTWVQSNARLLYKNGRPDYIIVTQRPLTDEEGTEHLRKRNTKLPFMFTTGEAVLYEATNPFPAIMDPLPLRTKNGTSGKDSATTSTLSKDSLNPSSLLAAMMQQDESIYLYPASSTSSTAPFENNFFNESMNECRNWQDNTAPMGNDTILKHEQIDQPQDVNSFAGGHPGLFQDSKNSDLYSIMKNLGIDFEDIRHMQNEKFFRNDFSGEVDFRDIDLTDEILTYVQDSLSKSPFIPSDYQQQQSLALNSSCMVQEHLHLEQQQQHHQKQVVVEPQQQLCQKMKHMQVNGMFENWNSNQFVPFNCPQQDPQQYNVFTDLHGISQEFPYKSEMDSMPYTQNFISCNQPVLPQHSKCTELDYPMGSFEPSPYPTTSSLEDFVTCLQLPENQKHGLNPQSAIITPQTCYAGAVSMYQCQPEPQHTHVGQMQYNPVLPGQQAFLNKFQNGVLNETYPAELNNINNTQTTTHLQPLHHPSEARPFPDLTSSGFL
Description: Caco-2 cells from American Type Culture Collection (ATCC) were plated in a sterile tissue culture treated 96-well plate (ThermoFisher) at 8.0×10^5 cells per well, and grown overnight at 37° C., 5% CO2 in DMEM complete (Gibco) in order to achieve confluence. After the incubation medium was aspirated off of the Caco-2 monolayers, tissues were then washed with 200 μL of warmed PBS solution, and subsequently 190 μL of pre-warmed growth medium was added to each well. Compounds of interest were diluted at a 20× concentration in growth medium containing 2% DMSO, and 10 μL of compound solutions were added to respective wells in triplicate. Compounds where incubated overnight at 37° C., 5% CO2. 2-(1′H-indole-3′-carbonyl)-thiazole-4-carboxylic acid methyl ester (ITE) was used as the positive control for AhR activation at 1 and 100 μM concentrations. At the end of the incubation, medium was aspirated off of the Caco-2 cells, and washed with 100 μL of cold PBS solution. RNA was extracted via the TaqMan™ Gene Expression Cells-to-CT™ Kit (ThermoFisher) according to the manufacturer's protocol. The QuantStudio 6 Flex (Applied Biosciences) was used to analyze mRNA levels of CYP1A1 using GAPDH as the endogenous control. TaqMan™ probe sets for both genes were acquired from ThermoFisher. Samples were run in triplicate and data was analyzed using the QuantStudio software and reported as linear (Table 6) and log 2(ΔΔCT) values. Statistical analysis was performed using a two-tailed t-test comparing CYP1A1 levels in the presence of each individual compound to the vehicle negative control.

Caco-2 colonocytes = experiment: Human Caco-2 Barrier Integrity Assay, Study 1; type: cell-based; conditions: Caco-2, + cytokines (TNFα, IFNγ, IL-1β), 48 hours
Description: Caco-2 colonocytes were maintained at 37° C. and 5% CO2 in Dulbecco's Modified Eagle Medium (DMEM) and supplemented with 10% FBS, 1% NEAA, 1% penicillin-streptomycin. At 70-80% confluency, cells were trypsinized and seeded in 0.4 cm^2 transwell collagen I coated membranes with supplemented DMEM in both apical and basolateral compartments. […] After 48 hours, TEER readings were taken again and viability was measured by CellTiter 96® AQueous One Solution Cell Proliferation Assay (Promega).

MIP-1β = experiment: Neutrophil Chemokine Production Assay: MIP-1β; type: cell-based; conditions: human neutrophils, 12 h
Description: as §1

| SMILES | % MIP-1α (Vehicle + LPS = 100%) (MIP-1α; Conc. 0.1 μM) | % MIP-1α (Vehicle + LPS = 100%) (MIP-1α; Conc. 1.0 μM) | Treg induction % DMSO (naïve CD4+ T cells; IL-2, 100 nM) | Treg induction % DMSO (naïve CD4+ T cells; IL-2, 1 μM) | Cell viability % DMSO (naïve CD4+ T cells; 100 nM) | Cell viability % DMSO (naïve CD4+ T cells; 1 μM) | % IL-8 (Vehicle + LPS = 100%) (IL-8; Conc. 0.1 μM) | % IL-8 (Vehicle + LPS = 100%) (IL-8; Conc. 1.0 μM) | Average CYP1A1 mRNA levels (AhR; Conc. 0.1 μM) | Average CYP1A1 mRNA levels (AhR; Conc. 1.0 μM) | % Change in TEER from DMSO (Caco-2 colonocytes; 100 nM) | % Change in TEER from DMSO (Caco-2 colonocytes; 1 μM) | % MIP-1β (DMSO + LPS = 100%) (MIP-1β; Conc. 0.1 μM) | % MIP-1β (DMSO + LPS = 100%) (MIP-1β; Conc. 1.0 μM) | Average CYP1A1 mRNA levels (AhR; Conc. 1000.0 μM) |
| --- | --- | --- | --- | --- | --- | --- | --- | --- | --- | --- | --- | --- | --- | --- | --- |
| O=C(O[C@@H]1Cc2c(O)cc(O)cc2O[C@@H]1c1cc(O)c(O)c(O)c1)c1cc(O)c(O)c(O)c1 [epigallocatechin gallate] | − (− = >90% Vehicle) | − (− = >90% Vehicle) | = (90% > <110%: =) | = (90% > <110%: =) | = (90% > <110%: =) | = (90% > <110%: =) | − (− = >90% Vehicle) | − (− = >90% Vehicle) | − (− = <2-fold Vehicle) | − (− = <2-fold Vehicle) | − (<125%: −) | − (<125%: −) | − (− = >90% Vehicle) | − (− = >90% Vehicle) |  |
| c1ccc2[nH]ccc2c1 [indole] |  |  |  |  |  |  |  |  |  |  |  |  |  |  | + (+ = >2-fold Vehicle) |
| COC(=O)c1csc(C(=O)c2c[nH]c3ccccc23)n1 [ITE, 2-(1′H-indole-3′-carbonyl)-thiazole-4-carboxylic acid methyl ester, reference compound] |  |  |  |  |  |  |  |  |  | +++ (+++ = >10-fold Vehicle) |  |  |  |  |  |
